Experimental data taken from patent EP4608400B1, “COMPOUND FOR TREATMENT OF PAIN” (Initiator Pharma A/S, priority 2022, dated 2024).
Entries after “also recorded” stand apart in the source; their conditions may differ.

Legend:
[1] = biological target: T1, dopamine transporter (DAT) (Homo sapiens, UniProt Q01959); assay: Inhibition of human transporter in stable epithelial cell lines (DAT); type: cell-based; settings: average of two replicates (n=2)
T1 construct: expressed in transfected cells
Method: Compounds were tested for their ability to inhibit the reuptake of the monoamine neurotransmitters dopamine (DA), noradrenaline (NA), and serotonin (5-HT) in synaptosomes as described in WO 97/16451 (NeuroSearch A/S). In addition, the compounds were tested in human epithelial cells expressing human transporters for 5-HT (SERT), dopamine (DAT), and norepinephrine (NET).
The results are the average of two-replicates per experiment (n=2).

[2] = Phase I crossover study, intradermal capsaicin model: safety evaluation (TEAEs); type: in vivo, human
Method: In order to maintain the blind, a double dummy approach was used.
Safety was assessed through AE reporting, 12-lead ECG, vital signs, physical examinations and clinical laboratory evaluations. Pharmacokinetics was assessed by blood sampling.

[3] = tested on: formalin-induced flinching behaviour; assay: Automated rat formalin test of persistent nociceptive pain; type: in vivo, Sprague-Dawley rats
Method: All treatments were administered s.c. in a dosing volume of 2 ml/kg 60 min prior to formalin injection.
Adult male Sprague-Dawley rats (Harlan Scandinavia, Alleroed, Denmark) were used. They were housed in Macrolon III cages (20 x 14 x 18 cm or 20 x 40 x18 cm; in groups of 2-5 per cage according to weight) containing wood-chip bedding material (3 x 1 x 4 mm). The environment was temperature (20 ± 2°C) and humidity (55 ± 15%) controlled and consisted of a light-dark cycle of 13:11 h (lights on at 06.00 h and off at 19.00 h). Food (Altromin®) and water were available ad libitum. The rats were allowed to habituate to the housing facilities for at least one week prior to being randomly assigned to behavioural experiments. At the end of each experiment rats were euthanized by cervical dislocation. All experiments were performed according to the Ethical Guidelines of the International Association for the Study of Pain (Zimmermann, 1983) and the Danish Committee for Experiments on Animals.
As highlighted in the Procedures section below 4 rats were included in each automated testing session. 4 individual treatments were assessed during the session and treatments were rotated to minimise bias associated with a particular testing chamber. […]
Assessment of formalin-induced flinching behaviour in normal, uninjured rats (body weight 180-220 g) was made with the use of an Automated Nociception Analyser (University of California, San Diego, CA; Yaksh et al., 2001). […] They were then returned to their separate observation chambers, each of which were in turn situated upon an enclosed detection device consisting of two electromagnetic coils designed to produce an electromagnetic field in which movement of the metal band could be detected. […] In an initial formalin concentration response study, five phases of nociceptive behaviour were identified and scored according to Yaksh et al., (2001); first phase (P1=0-5 min), interphase (Int=6-15 min), early second phase (P2A=16-40 min), late second phase (P2B=41-60 min) and entire second phase (P2A+P2B=16-60 min). […]

T1 sequence (Q01959 whole entry): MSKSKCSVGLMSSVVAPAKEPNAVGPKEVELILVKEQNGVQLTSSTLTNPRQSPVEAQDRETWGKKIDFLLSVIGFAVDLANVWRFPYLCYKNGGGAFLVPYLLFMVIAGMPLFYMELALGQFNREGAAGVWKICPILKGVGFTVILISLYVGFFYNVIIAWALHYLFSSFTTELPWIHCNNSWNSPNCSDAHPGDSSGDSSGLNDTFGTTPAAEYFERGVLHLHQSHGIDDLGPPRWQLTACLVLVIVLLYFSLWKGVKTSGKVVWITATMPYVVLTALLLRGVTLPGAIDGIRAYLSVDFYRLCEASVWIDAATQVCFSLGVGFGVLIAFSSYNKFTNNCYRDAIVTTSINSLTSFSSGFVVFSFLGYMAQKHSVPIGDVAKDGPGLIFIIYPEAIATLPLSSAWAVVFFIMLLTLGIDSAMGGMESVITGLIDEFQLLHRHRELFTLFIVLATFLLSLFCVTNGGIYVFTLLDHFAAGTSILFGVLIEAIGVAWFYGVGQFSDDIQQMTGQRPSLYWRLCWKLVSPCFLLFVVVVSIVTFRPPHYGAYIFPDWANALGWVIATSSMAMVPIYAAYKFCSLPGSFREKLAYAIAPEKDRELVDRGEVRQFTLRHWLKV

COc1cc2ccc(O[C@@H]3C[C@H]4CC[C@@H](C3)N4)cc2oc1=O [IP2015, exo-7-[(8-azabicyclo[3.2.1]octan-3-yl)oxy]-3-methoxy-chromen-2-one]
IC50 [1]: 1.44 nM | severity of all TEAEs ([2]; 5 mg IP2015 and 10 mg IP2015): mild | incidence of TEAEs (share of subjects) ([2]; 5 mg IP2015 single oral dose): 29.2% | number of TEAEs reported ([2]; 5 mg IP2015 single oral dose): 10 events | subjects reporting TEAEs ([2]; 5 mg IP2015 single oral dose): 7 subjects | incidence of TEAEs (share of subjects) ([2]; 10 mg IP2015 single oral dose): 54.2% | number of TEAEs reported ([2]; 10 mg IP2015 single oral dose): 19 events | subjects reporting TEAEs ([2]; 10 mg IP2015 single oral dose): 13 subjects | flinches in P1, interphase and P2 ([3]; 1, 3, 10, 30 mg/kg s.c., 60 min prior to 5% formalin): reduced the prevalence of flinches; also recorded: robust dose-dependent inhibition | observation in rats of the formalin test ([3]; 10 or 30 mg/kg s.c., all rats): spontaneous erections and/or ejaculations | minimal effective dose ([3]; s.c., especially during interphase and 2nd phase, stated as likely): < 3 mg/kg
